pEC50, pIC50: −log10 of the molar value.
Columns and labels:
AVPR1A [1] = target: T1, AVPR1A (Homo sapiens, UniProt P37288); experiment: SAFETYscan Calcium Flux AVPR1A Antagonist; assay type: cell-based
Excerpt: (§1) Supplement jm3c00155_si_002.xlsx, sheet "SAFETYScan" | column: RC50 (uM); Max Response

HT = experiment: 14-day cell proliferation assay, HT; assay type: cell-based; conditions: Homo sapiens, 14-day assay
Excerpt: DMSO final concentration.
After a short centrifugation the
(1st emission filter) / 450-80 nm (2nd emission filter). The % inhibition at each test concentration was […]
sigmoidal four-parameter logistic fit equation.
2.3 Cell proliferation assay
Aldrich) supplemented with 10% FBS (Gibco). Compounds were initially dispensed into 96-well U-bottom […]
transferred onto the cells.
Assay plates containing cells
(Beckman Coulter). The volume of medium containing 2500 cells in the control well was calculated and this volume of cells was transferred from every well of the assay plates to the corresponding well of the fresh plates containing compound. After 14 days, CellTiter Glo reagent (Promega) was added to the medium in each well of the assay plate at a ratio of 1:2, mixed on a plate shaker, then incubated at room temperature for 10 minutes. Luminescence was measured using an Envision plate reader (Perkin Elmer) and the relative luminescence at each compound concentration, compared to DMSO alone, was calculated. GI50 were determined using a 4-parameter curve fit in Dotmatics (Bishops Stortford, UK).

ARID3A mRNA = ARID3A mRNA in Karpas 422 tumour xenografts (quantitative RT-PCR); assay type: in vivo, mouse; conditions: 50 mg/kg PO, 12 h post dose, TaqMan PCR
Method: frozen in liquid nitrogen, dedicating one half to PK analysis and the other half to pharmacodynamic analysis (PD). All frozen material was permanently stored in a -80°C freezer.
5.3.5 Tumour lysis and Wes method
Tumours were lysed in lysis buffer (50 mM Tris-HCl, pH 7.4, 150 mM NaCl, 1% Triton X-100 (v/v), 1 mM PMSF, 1 mM activated sodium vanandate, 1 mM EDTA, phosphatase inhibitors 2 and 3 (1:50m dilution) and protease cocktail (1:100 dilution)) using reinforced homogenizing tubes containing metal beads using a Precellys 24 with cryolys cooling at 6000 rpm, 2 × 20 s (Stretton Scientific). Lysates were incubated on ice for 15 minutes, spun at 14000 rpm at 4 °C for 10 minutes and supernatants collected and aliquoted.
Samples were stored at -80 °C until use. Protein concentration was determined by diluting 1:10 with lysis buffer and measuring on Direct Detect® spectrometer according to manufacturer’s instructions.
Protein lysates were diluted to 0.0875 mg/ml with 0.1x sample buffer and run on Wes 12-230 kDa kit according to manufacturer’s instructions (ProteinSimple) with multiplexing BCL6 (CST14895 at 1:150 dilution) and GAPDH (CST 2118 at 1:50 dilution). Data was analysed using Compass for SW software. […]
5.3.6 Quantitative RT-PCR […]
(ThermoFisher Scientific). ARID3A expression relative to vehicle-treated tumours was determined using […]

CHRM3 = CHRM3 (Homo sapiens, UniProt P20309); experiment: SAFETYscan Calcium Flux CHRM3 Agonist; assay type: cell-based
Excerpt: as §1

DRD1 = DRD1 (Homo sapiens, UniProt P21728); experiment: SAFETYscan cAMP DRD1 Agonist; assay type: cell-based
Excerpt: as §1

NMDAR (1A/2B) = NMDAR (1A/2B) (Homo sapiens, UniProt Q05586+Q13224); experiment: SAFETYscan Ion Channel NMDAR (1A/2B) Blocker; assay type: cell-based
Chain of NMDAR (1A/2B) (Q13224 27-1484, other chains not shown): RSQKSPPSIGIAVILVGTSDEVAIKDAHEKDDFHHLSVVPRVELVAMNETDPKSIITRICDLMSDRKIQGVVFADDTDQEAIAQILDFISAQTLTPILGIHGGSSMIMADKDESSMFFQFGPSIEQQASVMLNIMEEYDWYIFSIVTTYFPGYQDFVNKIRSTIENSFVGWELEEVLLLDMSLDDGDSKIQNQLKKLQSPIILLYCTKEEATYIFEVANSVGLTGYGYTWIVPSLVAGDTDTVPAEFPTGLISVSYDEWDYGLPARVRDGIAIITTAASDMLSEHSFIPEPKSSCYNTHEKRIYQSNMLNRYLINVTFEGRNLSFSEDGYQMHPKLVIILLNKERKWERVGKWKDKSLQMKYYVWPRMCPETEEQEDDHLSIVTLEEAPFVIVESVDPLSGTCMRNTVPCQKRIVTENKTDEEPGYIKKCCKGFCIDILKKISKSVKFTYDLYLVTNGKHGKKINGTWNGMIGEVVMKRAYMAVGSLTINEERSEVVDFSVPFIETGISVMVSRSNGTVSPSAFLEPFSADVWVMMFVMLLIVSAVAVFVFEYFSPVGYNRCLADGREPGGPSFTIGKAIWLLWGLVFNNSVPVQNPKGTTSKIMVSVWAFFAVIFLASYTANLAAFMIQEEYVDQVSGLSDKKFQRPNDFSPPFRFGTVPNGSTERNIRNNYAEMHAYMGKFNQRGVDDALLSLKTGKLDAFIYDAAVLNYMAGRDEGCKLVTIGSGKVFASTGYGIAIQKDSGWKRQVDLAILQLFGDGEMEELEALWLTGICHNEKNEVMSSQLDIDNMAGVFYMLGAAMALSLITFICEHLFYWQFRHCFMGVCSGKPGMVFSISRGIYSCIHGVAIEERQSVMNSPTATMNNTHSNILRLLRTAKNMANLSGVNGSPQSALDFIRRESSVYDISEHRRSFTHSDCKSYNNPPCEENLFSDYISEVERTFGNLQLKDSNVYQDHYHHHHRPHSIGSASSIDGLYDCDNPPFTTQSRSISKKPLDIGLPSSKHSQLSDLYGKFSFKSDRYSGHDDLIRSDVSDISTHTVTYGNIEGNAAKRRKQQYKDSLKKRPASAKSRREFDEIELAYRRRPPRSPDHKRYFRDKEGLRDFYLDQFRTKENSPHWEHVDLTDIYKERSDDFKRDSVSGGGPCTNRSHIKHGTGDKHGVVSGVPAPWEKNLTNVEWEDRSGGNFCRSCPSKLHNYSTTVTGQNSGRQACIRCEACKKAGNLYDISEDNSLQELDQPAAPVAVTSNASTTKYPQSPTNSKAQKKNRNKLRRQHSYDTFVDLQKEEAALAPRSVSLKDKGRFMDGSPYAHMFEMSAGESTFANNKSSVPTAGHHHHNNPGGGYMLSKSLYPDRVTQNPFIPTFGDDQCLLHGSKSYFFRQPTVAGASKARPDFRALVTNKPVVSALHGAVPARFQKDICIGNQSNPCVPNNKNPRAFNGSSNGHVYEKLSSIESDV
Excerpt: as §1

kinase panel (468) [2] = experiment: KINOMEscan scanMAX kinase panel (468); assay type: binding; conditions: for Percent Control: 10000 nM
kinase panel (468) [3] = target: kinase panel (468) (Homo sapiens, UniProt P00519, H396P); experiment: KINOMEscan scanMAX kinase panel (468); assay type: binding
CAV1.2 = CAV1.2 (Homo sapiens, UniProt Q13936); experiment: in vitro; assay type: cell-based
Excerpt: as §1

ROCK1 = ROCK1 (Homo sapiens, UniProt Q13464); experiment: SAFETYscan Kinases Binding ROCK1 Inhibitor
Chain of ROCK1 (Q13464 whole entry): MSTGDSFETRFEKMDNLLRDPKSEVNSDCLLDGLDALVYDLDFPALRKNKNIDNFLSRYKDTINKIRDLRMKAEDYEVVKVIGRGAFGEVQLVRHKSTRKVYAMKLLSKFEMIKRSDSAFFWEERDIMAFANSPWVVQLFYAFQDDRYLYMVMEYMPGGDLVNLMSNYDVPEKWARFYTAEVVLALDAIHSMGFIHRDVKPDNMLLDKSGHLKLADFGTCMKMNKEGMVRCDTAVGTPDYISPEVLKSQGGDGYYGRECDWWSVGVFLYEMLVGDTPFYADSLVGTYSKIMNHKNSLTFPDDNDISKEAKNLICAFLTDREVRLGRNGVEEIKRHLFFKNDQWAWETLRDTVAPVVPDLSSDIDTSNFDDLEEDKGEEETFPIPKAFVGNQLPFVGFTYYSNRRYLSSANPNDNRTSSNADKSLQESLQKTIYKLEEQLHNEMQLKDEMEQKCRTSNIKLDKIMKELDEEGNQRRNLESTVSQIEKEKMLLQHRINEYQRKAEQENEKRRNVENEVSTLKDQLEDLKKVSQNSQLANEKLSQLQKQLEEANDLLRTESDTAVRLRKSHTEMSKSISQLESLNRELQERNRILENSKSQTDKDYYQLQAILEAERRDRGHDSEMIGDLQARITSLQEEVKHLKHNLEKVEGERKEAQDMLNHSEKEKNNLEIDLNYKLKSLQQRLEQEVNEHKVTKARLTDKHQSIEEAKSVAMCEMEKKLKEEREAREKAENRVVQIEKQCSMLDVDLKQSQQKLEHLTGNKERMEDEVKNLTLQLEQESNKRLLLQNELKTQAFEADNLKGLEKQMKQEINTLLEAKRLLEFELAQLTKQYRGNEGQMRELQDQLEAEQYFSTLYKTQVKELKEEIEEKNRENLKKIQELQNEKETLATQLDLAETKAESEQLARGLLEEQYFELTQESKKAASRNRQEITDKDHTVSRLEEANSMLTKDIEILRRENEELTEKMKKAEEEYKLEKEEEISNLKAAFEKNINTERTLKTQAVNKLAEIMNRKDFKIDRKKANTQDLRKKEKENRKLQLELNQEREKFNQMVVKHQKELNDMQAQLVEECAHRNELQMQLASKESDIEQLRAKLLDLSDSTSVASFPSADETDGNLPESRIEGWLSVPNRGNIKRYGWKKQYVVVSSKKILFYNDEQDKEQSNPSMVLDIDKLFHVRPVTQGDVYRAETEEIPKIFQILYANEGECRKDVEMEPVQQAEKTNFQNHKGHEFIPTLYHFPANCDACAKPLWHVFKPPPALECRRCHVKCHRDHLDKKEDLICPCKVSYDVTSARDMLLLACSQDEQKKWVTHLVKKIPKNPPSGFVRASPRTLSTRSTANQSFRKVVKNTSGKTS
Excerpt: as §1

HTR2A [4] = target: T2, HTR2A (Homo sapiens, UniProt P28223); experiment: SAFETYscan Calcium Flux HTR2A Antagonist; assay type: cell-based
T2 sequence (P28223 whole entry): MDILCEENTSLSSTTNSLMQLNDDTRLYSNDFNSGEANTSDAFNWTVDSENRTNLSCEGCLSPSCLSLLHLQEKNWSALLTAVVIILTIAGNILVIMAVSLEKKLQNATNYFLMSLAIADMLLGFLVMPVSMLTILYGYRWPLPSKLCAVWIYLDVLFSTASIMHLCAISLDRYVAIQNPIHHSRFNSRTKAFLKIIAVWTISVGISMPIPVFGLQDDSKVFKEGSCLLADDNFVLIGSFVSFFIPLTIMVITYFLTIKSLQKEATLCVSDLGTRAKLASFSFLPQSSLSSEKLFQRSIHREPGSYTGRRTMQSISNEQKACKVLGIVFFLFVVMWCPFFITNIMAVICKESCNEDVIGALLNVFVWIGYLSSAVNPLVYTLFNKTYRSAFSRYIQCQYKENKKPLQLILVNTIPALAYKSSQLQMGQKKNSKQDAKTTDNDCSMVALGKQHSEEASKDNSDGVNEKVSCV
Excerpt: as §1

GABAA = GABAA (Homo sapiens, UniProt P14867+P18507+P47870); experiment: SAFETYscan Ion Channel GABAA Blocker; assay type: cell-based
Chain of GABAA (P14867 28-456): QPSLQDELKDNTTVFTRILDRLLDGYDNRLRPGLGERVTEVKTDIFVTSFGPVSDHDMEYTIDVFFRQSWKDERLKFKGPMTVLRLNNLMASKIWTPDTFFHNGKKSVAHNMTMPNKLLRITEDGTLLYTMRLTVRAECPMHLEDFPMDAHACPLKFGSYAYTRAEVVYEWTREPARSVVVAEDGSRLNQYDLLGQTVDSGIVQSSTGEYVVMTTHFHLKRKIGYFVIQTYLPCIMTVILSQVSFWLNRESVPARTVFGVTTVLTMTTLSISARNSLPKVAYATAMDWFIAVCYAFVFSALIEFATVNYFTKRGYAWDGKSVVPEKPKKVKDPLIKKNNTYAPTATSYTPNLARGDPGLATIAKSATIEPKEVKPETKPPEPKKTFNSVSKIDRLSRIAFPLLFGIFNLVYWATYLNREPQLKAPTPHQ
Chain of GABAA (P47870 26-512): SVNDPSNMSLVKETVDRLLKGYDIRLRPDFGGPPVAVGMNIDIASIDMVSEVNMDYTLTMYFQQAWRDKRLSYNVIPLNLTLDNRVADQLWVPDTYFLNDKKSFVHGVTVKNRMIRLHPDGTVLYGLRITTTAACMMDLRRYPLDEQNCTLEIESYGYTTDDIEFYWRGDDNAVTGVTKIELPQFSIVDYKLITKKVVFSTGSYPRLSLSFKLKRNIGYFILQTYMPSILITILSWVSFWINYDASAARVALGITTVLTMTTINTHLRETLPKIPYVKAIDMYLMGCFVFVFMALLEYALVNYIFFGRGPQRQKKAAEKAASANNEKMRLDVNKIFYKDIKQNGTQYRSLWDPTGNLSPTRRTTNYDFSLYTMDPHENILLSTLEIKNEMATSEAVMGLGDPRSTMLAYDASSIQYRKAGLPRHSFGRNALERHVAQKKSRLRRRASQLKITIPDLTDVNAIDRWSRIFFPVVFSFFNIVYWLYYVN
Chain of GABAA (P18507 40-475): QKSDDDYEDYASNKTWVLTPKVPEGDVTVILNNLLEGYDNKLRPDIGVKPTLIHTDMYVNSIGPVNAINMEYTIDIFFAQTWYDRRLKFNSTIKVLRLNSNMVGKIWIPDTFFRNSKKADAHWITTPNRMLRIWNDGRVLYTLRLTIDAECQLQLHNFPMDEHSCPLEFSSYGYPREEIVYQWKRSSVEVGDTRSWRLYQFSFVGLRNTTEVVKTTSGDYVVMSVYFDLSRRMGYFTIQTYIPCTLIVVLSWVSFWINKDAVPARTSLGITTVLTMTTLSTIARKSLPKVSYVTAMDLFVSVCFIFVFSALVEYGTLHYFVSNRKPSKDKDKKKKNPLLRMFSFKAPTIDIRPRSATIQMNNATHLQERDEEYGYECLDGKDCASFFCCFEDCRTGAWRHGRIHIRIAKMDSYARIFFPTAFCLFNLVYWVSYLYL
Excerpt: as §1

AVPR1A [5] = target: T1, AVPR1A; experiment: SAFETYscan Calcium Flux AVPR1A Agonist; assay type: cell-based
Excerpt: as §1

PDE3A = PDE3A (Homo sapiens, UniProt Q14432); experiment: SAFETYscan Enzymatic PDE3A Inhibitor; assay type: biochemical
Excerpt: as §1

INSR = INSR (Homo sapiens, UniProt P06213); experiment: SAFETYscan Kinases Binding INSR Inhibitor
Excerpt: as §1

ADRB1 = ADRB1 (Homo sapiens, UniProt P08588); experiment: SAFETYscan cAMP ADRB1 Agonist; assay type: cell-based
Excerpt: as §1

HTR2A [6] = target: T2, HTR2A; experiment: SAFETYscan Calcium Flux HTR2A Agonist; assay type: cell-based
Excerpt: as §1

T1 sequence (P37288 whole entry): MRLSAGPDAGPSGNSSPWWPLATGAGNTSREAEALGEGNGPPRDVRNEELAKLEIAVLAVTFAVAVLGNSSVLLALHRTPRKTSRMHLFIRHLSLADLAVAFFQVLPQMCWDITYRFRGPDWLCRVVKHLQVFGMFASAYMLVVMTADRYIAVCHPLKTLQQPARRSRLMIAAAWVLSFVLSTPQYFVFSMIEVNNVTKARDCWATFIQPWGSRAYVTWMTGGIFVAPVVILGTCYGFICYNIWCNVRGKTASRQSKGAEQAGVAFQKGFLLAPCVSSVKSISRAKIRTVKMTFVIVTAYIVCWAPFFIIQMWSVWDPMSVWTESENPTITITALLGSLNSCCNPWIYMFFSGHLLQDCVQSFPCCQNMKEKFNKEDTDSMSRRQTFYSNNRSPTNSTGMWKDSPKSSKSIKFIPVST

For Cn1c(=O)c2c(c3cc(Nc4ccnc(F)c4Cl)ccc31)N[C@@H](C1CC1)C(F)(F)CO2 [compound 17, (S)-10-((3-chloro-2-fluoropyridin-4-yl)amino)-2-cyclopropyl-3,3-difluoro-7-methyl-1,2,3,4-tetrahydro-[1,4]oxazepino[2,3-c]quinolin-6(7H)-one], the Emax (AVPR1A [1]; read-out: Max Response) was 2.15%, the pIC50 (AVPR1A [1]; read-out: RC50 (IC50)) was under 5.00 and the GI50 (HT) was 0.545 µM. The “ARID3A mRNA expression in tumor xenografts” value (ARID3A mRNA) was “significant increase in ARID3A mRNA expression”, the pEC50 (CHRM3) was under 5.00 and the Emax (CHRM3; CHRM3, Calcium Flux, Agonist, read-out: Max Response) was 0%. The pEC50 (DRD1) was under 5.00, the Emax (DRD1; DRD1, cAMP, Agonist, read-out: Max Response) was 0% and the pIC50 (NMDAR (1A/2B)) was under 5.00. For the same compound, the Emax (NMDAR (1A/2B); NMDAR (1A/2B), Ion Channel, Blocker, read-out: Max Response) was 0%, the “kinase panel (468) outcome” value (kinase panel (468) [2]) was “selective activity and minimal off-target interactions” and the “Percent Control” value (kinase panel (468) [2]; EGFR(L747-E749del, A750P)) was 93%. For the same compound, the “Percent Control” value (kinase panel (468) [2]; EGFR(L747-S752del, P753S)) was 67%, the “Percent Control” value (kinase panel (468) [2]; EGFR(L747-T751del,Sins)) was 100% and the “Percent Control” value (kinase panel (468) [2]; FLT3(ITD)) was 98%. For the same compound, the “Percent Control” value (kinase panel (468) [2]; FLT3(ITD,D835V)) was 100%, the “Percent Control” value (kinase panel (468) [2]; FLT3(ITD,F691L)) was 100% and the “Percent Control” value (kinase panel (468) [3]) was 84%. The Emax (CAV1.2) was 0%, the pIC50 (CAV1.2) was under 5.00 and the Emax (ROCK1; read-out: Max Response) was 0%. The pIC50 (ROCK1; read-out: RC50 (IC50)) was under 5.00, the pIC50 (HTR2A [4]) was under 5.00 and the Emax (HTR2A [4]; HTR2A, Calcium Flux, Antagonist, read-out: Max Response) was 5.28%. It also gave a pIC50 (GABAA) of under 5.00, an Emax (GABAA; GABAA, Ion Channel, Blocker, read-out: Max Response) of 0% and an Emax (AVPR1A [5]; read-out: Max Response) of 0%. It also gave a pEC50 (AVPR1A [5]; read-out: RC50 (EC50)) of under 5.00, an Emax (PDE3A; read-out: Max Response) of 2.67% and a pIC50 (PDE3A; read-out: RC50 (IC50)) of under 5.00. It also gave an Emax (INSR; read-out: Max Response) of 0%, a pIC50 (INSR; read-out: RC50 (IC50)) of under 5.00 and an Emax (ADRB1; read-out: Max Response) of 0%. It also gave a pEC50 (ADRB1; read-out: RC50 (EC50)) of under 5.00, a pEC50 (HTR2A [6]) of under 5.00 and an Emax (HTR2A [6]; HTR2A, Calcium Flux, Agonist, read-out: Max Response) of 2.33%.

Source: publication PMC10150366, “Discovery of an In Vivo Chemical Probe for BCL6 Inhibition by Optimization of Tricyclic Quinolinones” (Journal of Medicinal Chemistry, 2023)
